Some results are limits rather than exact numbers.

The melting point is the temperature, or range, at which the solid turns liquid.

`CCOC(=O)/C=C/c1cnc(-c2ccc(O)c(C34CC5CC(CC(C5)C3)C4)c2)cn1` gave a melting point of 212 to 215 °C.
As for `CN(C)C=Nc1[nH]nc(-c2cccc([N+](=O)[O-])c2)c1C#N`, the melting point lay in the range of 221 to 225 °C.
Consider `O=C(CSc1ncccn1)NC/C=C\COc1cc(CN2CCCCC2)ccn1`, for which the melting point is 103 to 106 °C.
For `CC1(C)SC(C)(C)N(C(=O)COc2ccc(Cl)cc2)C1C(=O)O` (stereo not drawn) the value was 146 to 147 °C; for `COc1ccc2c(c1)CCC1C2=CCC2(C)C(OC(C)(C)C)CCC12` (single isomer, unassigned; (+)), 131 to 132 °C; for `CN(C)CCNc1nccc(N2CCCCCC2)n1`, 53 to 54.5 °C.
`COc1cc(C)nc(NC(=O)NS(=O)(=O)c2cccc3c2S(=O)(=O)C(C)(C)S3(=O)=O)n1` gave a melting point of 191 to 200 °C.
In turn, `Cc1noc(C)c1Cn1cc(NC(=O)[C@@H](C)c2ccccc2)cn1` displayed a melting point of 108 to 110 °C.
Compound `CC(=O)SCC(=Cc1cccc2ccccc12)C(=O)NCCC(=O)OCc1ccccc1` yielded a melting point of 78 °C.
`CCN(CC)C(=O)CCC1CCN(Cc2cnc3cc(NC(=O)c4ccc(-c5ccc(F)cc5)cc4)c(C)cc3c2)CC1` came in with a melting point of 150 to 154 °C.
Compound `CCOC(=O)CCCN1CCC[C@H](NCc2ccccc2OC)[C@@H]1c1ccccc1` (relative stereo) had a melting point of 75 to 90 °C.
For `Cc1cc(-c2ccc(C(F)(F)F)c(C)c2)nc(-c2cccc(-c3ccc(S(N)(=O)=O)s3)c2)n1`, the melting point was found to be 242 °C.
For the compound `COc1ccc(C(=O)Nc2c(Cl)cncc2Cl)cc1OC1CCCC1F` (stereo not drawn), the melting point fell in the range of 167 to 169 °C.
As for `CCCCc1nc(C(=O)C(C)(C)C)c(C#N)[nH]1`, the melting point lay within 135 to 137 °C.
For `FC(F)C(F)(F)Sc1nc(-c2ccccc2)c(-c2cccnc2)[nH]1` the value was 153 to 154 °C; for `COc1ccccc1NC(=O)Nc1nc(Nc2ccccc2-c2ccccc2)nc(N(CCC(=O)O)Cc2cccs2)n1`, 115 to 120 °C.
For `CSc1cnc2cc(-c3cccc(Cl)c3)sc2c1O` the value was over 300 °C; for `COc1ccc(-c2ccc(-c3ccc(C(=O)O)cc3)cc2-c2ccc3c(c2)C(C)(C)CCC3(C)C)cc1`, 112 to 115 °C; for `CCCCCNC(=O)[C@@H]1CCCN1C(=O)[C@H](C)NC(=O)CC`, 105 to 108 °C.
`OCC1OC(OC2C(CO)OC(CO)C2O)C(O)C(O)C1O` (stereo not drawn) displayed a melting point of 162 to 164 °C.
Compound `CC(=O)NCCC1CCc2ccc(O)cc21` (stereo not drawn) gave a melting point of 107 to 108 °C.
`CC(C)(C)Sc1c(CC(C)(C)C(=O)O)n(Cc2ccc(Cl)cc2)c2ccc(OCc3ccc(Cl)s3)cc12` gave a melting point of 182 to 184 °C.
For `O=C(C1NCCc2occc21)N1CCCC1` (stereo not drawn) the value was 85 to 86 °C.
On to `O=[N+]([O-])c1c(Cl)cccc1-c1nn(CO)cc1Cl`, for which the melting point was 146 °C.
`O=C(C[C@@H]1COCCO1)N[C@H]1CC[C@H](CCN2CCC(c3cccc4c3CCO4)CC2)CC1` returned a melting point of 190 °C.
On to `OC(C(=Cc1cccnc1)c1ccc(F)cc1)c1ccccc1Cl` (stereo not drawn), for which the melting point fell in the range of 82 to 83 °C.
`CCNC(=N)Nc1nc2ccc(OC(F)(F)F)cc2s1` gave a melting point of 127 to 129 °C.
For `O=C1CC2C(OCc3ccc(Br)cc3)CC(O1)C2N1CCCCC1` (single isomer, unassigned; (-)) the value was 85 to 88 °C; for `CC(C)(C)OC(=O)n1ccc2cc([N+](=O)[O-])ccc21`, 135 to 137 °C; for `CCOC(=O)C(O)(CC(C)(C)c1cc(F)ccc1OC)C(F)(F)F` (stereo not drawn), 38 to 39 °C.
`Oc1nc2ccc(Cl)cc2nc1O`: the melting point is over 260 °C.
On to `COc1ccc(CCCON2CCC(C(=O)c3nc4ccccc4s3)CC2)cc1`, for which the melting point fell in the range of 114 to 115 °C.
`CCCCN(C(=O)Nc1ccc(F)cc1F)c1cnc2ccc(Cl)cc2c1-c1ccccc1Cl` showed a melting point of 63 to 66 °C.
For `Cc1cscc1NC(=S)Nc1cc(C(F)(F)F)cc(Cl)c1N` the value was over 310 °C.
The compound `Cn1c(=O)c(-c2ccc(Cl)cc2Cl)cc2c3cc(-c4cocn4)ccc3n(C)c21` had a melting point of 221 to 222 °C.
`O=Cc1cc(OCCCNC(=O)NC2CCCCC2)ccc1[N+](=O)[O-]` had a melting point of 150 to 152 °C.
`CS(=O)(=O)c1ccc(-c2cnn(-c3cccc(Cl)c3)c(=O)c2Oc2ccccc2)cc1` gave a melting point of 205 to 207 °C.
For `C=CC(=O)OCCCCCCCCCCCOc1ccc(O)cc1` the value was 72 to 74 °C.
`Nc1ccc2ccc(Oc3ccccc3Cl)nc2n1`: the melting point was found to be 166 °C.
The compound `O=C1CCN(CCCN2c3cccc4cccc(c34)S2(=O)=O)CC1` yielded a melting point of 108 °C.
The compound `C[C@@H](c1ccc(-c2ccc(F)cn2)cc1)N1CC[C@](CC(C)(C)O)(c2ccccc2)OC1=O` displayed a melting point of 159 to 160 °C.
In turn, `CC(C)C(CN1CCC(Nc2nc3ccccc3n2-c2cccc3c2NCCC3)CC1)NCc1ccccc1` (stereo not drawn) gave a melting point of 126 °C.
Turning to `CCN1CCCC(NC(=O)c2ccccc2Nc2ccnc3cc(Cl)ccc23)C1` (stereo not drawn), the melting point lay in the range of 187 to 188 °C.
In turn, `C[Si](C)(C)C#Cc1ccc2c(c1)C(c1ccccc1F)=NCc1c(C(=O)OCC(F)(F)F)ncn1-2` showed a melting point of 220 to 221 °C.
For `O=C(NCC1CC1)Nc1ccc(N2CCOCC2)cc1C(=O)NCC1CCN(C(c2ccccc2)c2ccccc2)CC1` the value was 218 to 220 °C.
Compound `O=C1c2ccccc2C(O)(c2ccccc2)N1CC(c1ccccc1)c1ccccc1` (stereo not drawn) yielded a melting point of 230 °C.
For `O=C(O)CNC(=O)c1nc(Cl)c2ccc(OCc3ccccc3)cc2c1O` the value was 210 to 211 °C.
In the case of `Cc1cccc(Cl)c1NC(=O)N=C1NCCN1`, the melting point was 169 to 171 °C.
For `COc1ccc(C(=O)Nc2ccc(C3(CNC(C)=O)CC3)cc2)cc1OC` the value was 204 to 206 °C; for `CCn1ncc2c3noc(-c4ccc(C)cc4)c3cnc21`, 221 to 222 °C.
`COc1ccc(-c2nc(-c3ccccc3)sc2-c2ccc(OC)cc2)cc1` yielded a melting point of 117 to 118 °C.
In the case of `CCN1CCCC1CNC(=O)CCCOc1ccc2nc3[nH]c(=O)[nH]c3cc2c1` (stereo not drawn), the melting point fell in the range of 233 to 237 °C.
For `Cc1cccc(C)c1CNc1cc(C(=O)N(C)C)cc2c1nc(CO)n2C` the value was 171 to 172 °C.
Take `O=C(N[C@@H](CCO)C(=O)O)OCc1ccccc1`: the melting point was 125 to 128 °C.
In turn, `Cc1cc(CC=CCc2cc(C)c(O)c(C(C)(C)C)c2)cc(C(C)(C)C)c1O` registered a melting point of 99 to 106 °C.
For `COC(CN1CCN(c2cccc(-n3cnc4cc(C(C)=O)ccc43)c2)CC1)=NOC(C)C` the value was 120 to 121 °C; for `NC(=O)C(F)(F)C(F)(F)C(F)(F)C(F)(F)C(F)(F)C(F)(F)C(F)(F)F`, 136 to 137 °C; for `CC(c1oc2ccccc2c(=O)c1-c1cccc(F)c1)n1nc(-c2ccc3cc(O)ccc3c2)c2c(N)ncnc21` (stereo not drawn), 281 to 285 °C.
As for `C=C1CC2C(=CCC3(C)C2CC(C)C3(OC(C)=O)C(C)=O)C2(C)CCC(=O)C=C12` (stereo not drawn), the melting point fell in the range of 197 to 198 °C.
The compound `CCCn1cnc2c1c(=O)n(CCCCOc1ccc(OC)cc1)c(=O)n2C` displayed a melting point of 61 to 62 °C.
On to `O=Cc1cccc(Cl)n1`, for which the melting point was 136 °C.
The compound `COc1cc(Nc2cc(C(=O)O)c(C(=O)O)cc2Nc2ccccc2)cc(OC)c1OC` showed a melting point of 145 to 146 °C.
For `Cc1nc(S(=O)(=O)Cc2ccc(Cl)cc2)nc2c1CCCC2` the value was 151 °C; for `COCCOCCOCCC1(CCOCCOCCOC)c2cc(C#Cc3ccc(C=O)s3)ccc2-c2ccc(C#Cc3ccc(C=O)s3)cc21`, 84 °C.
`COc1ccc2c(c1)S(=O)(=O)c1ccccc1C(=O)N2` displayed a melting point of 244 to 246 °C.
As to `Cc1cccc(NC(=O)OC(C)(C)C)c1COc1cccn2c(C=O)c(C)nc12`, the melting point was 189 to 191 °C.
As for `O=C1CSc2cc(-c3cccc([N+](=O)[O-])c3)ccc2N1`, the melting point was in the range of 290 to 292 °C.
Compound `NC(=O)NC1CCN(Cc2ccc3ccccc3c2)CC1` had a melting point of 183 to 185 °C.
For the compound `CCCN1c2ccccc2N(C)C(=O)c2cccnc21`, the melting point fell in the range of 96 to 98 °C.
As for `CCOC(=O)c1ccc(COCc2csc3nc(C(=O)NCc4cccc(CS(C)=O)c4)[nH]c(=O)c23)cc1` (stereo not drawn), the melting point was in the range of 195 to 196 °C.
For the compound `Cc1cc(O)cc(C)c1[N+](=O)[O-]`, the melting point is 106 to 108 °C.
`COc1cc(C(=O)N2CCc3nnc(NN)cc3C2)cc(OC)c1OC` returned a melting point of 194 to 197 °C.
`CO[C@@H](Cc1ccc(OCCc2nc(-c3ccc(C(F)(F)F)cc3)oc2C)c2ccsc12)C(=O)O`: the melting point lay in the range of 173 to 175 °C.
For `CC(C)CCC(=O)N[C@@H](CC(C)C)C(=O)N[C@@H](C(C)C)[C@@H](O)c1c(-c2ccccc2)c1=O` the value was 148 to 151 °C; for `N#CC1=C(c2ccccc2)Nc2n[nH]cc2C1c1cccc2nsnc12` (stereo not drawn), 258 °C; for `O=[N+]([O-])c1ccc(O)c(C(=NO)c2ccccc2)c1`, 193 to 196 °C.
The compound `CCCc1c(-c2ccc(C(=O)OC)cc2)oc2cc(NC(C)=O)ccc2c1=O` showed a melting point of 244 °C.
With `COc1ccc(N2CCN(c3ccc(-n4c(C)nn(CC(=O)c5ccc(Cl)cc5)c4=O)cc3)CC2)cc1`, the melting point was found to be 230 °C.
`Cc1ccc2c(c1)C=Cc1ncccc1C2c1cn(C)c(=O)[nH]c1=S` (stereo not drawn) returned a melting point of 157 to 160 °C.
`O=C1c2ccccc2C(=O)N1OCc1c[nH]cn1`: the melting point lay in the range of 163 to 165 °C.
For `COc1cc(N)c(Cl)cc1C(=O)N[C@H]1CCN(CCCCNc2ncccn2)C[C@H]1OC` (relative stereo), the melting point was determined as 115 °C.
For `COC(=O)c1ccc(-c2cc(-c3cc4c(cc3C)CCCC4(C)C)[nH]n2)cc1` the value was 92 to 93 °C; for `CCCCC(=O)c1c(-c2ccc3c(Br)c(OCC#N)ccc3c2)oc2ccccc12`, 98 to 100 °C.

Source of the values: a melting point compilation (Tetko et al.; mined from patent text by program, amines drawn as free bases though some values may be those of a salt).
